{
  "source": "paper PMC5218480",
  "about": "(PLoS ONE, 2017)",
  "system": "MV-4-11 cells",
  "assay": "Gene expression microarray analysis (Affymetrix PrimeView) and GSEA",
  "type": "cell-based, human",
  "set-up": "RFU PODN (11730768_x_at) / Fold change /veh PODN (11730768_x_at) / RFU LINC00158 (11744669_a_at) / Fold change /veh LINC00158 (11744669_a_at) / RFU DUSP10 (11751237_a_at) / Fold change /veh DUSP10 (11751237_a_at) / RFU ID3 (11757404_x_at) / Fold change /veh ID3 (11757404_x_at) / RFU PLEKHG5 (11737974_s_at) / Fold change /veh PLEKHG5 (11737974_s_at) / RFU LRRC4B (11730491_at) / Fold change /veh LRRC4B (11730491_at) / RFU GIMAP4 (11747438_a_at) / Fold change /veh GIMAP4 (11747438_a_at) / RFU KRT8 (11758183_x_at) / Fold change /veh KRT8 (11758183_x_at) / RFU CNN1 (11734310_a_at) / Fold change /veh CNN1 (11734310_a_at) / RFU VPS37D (11726825_at) / Fold change /veh VPS37D (11726825_at) / RFU C10orf10 (11716522_x_at) / Fold change /veh C10orf10 (11716522_x_at) / RFU KIR2DL2 /// KIR2DL4 /// KIR2DL5A /// KIR2DL5B /// KIR2DS1 /// KIR2DS2 /// KIR2DS3 /// KIR2DS4 /// KIR3DL3 /// KIR3DL3 /// KIR3DS1 (11738374_at) / Fold change /veh KIR2DL2 /// KIR2DL4 /// KIR2DL5A /// KIR2DL5B /// KIR2DS1 /// KIR2DS2 /// KIR2DS3 /// KIR2DS4 /// KIR3DL3 /// KIR3DL3 /// KIR3DS1 (11738374_at) / RFU C1QL1 (11718748_at) / Fold change /veh C1QL1 (11718748_at) / RFU TMPRSS4 (11747572_a_at) / Fold change /veh TMPRSS4 (11747572_a_at) / RFU HAMP (11756126_x_at) / Fold change /veh HAMP (11756126_x_at) / RFU RNFT2 (11725882_a_at) / Fold change /veh RNFT2 (11725882_a_at) / RFU NR4A2 (11747474_a_at) / Fold change /veh NR4A2 (11747474_a_at) / RFU ABCC12 (11746883_a_at) / Fold change /veh ABCC12 (11746883_a_at) / RFU TMEM136 (11760407_x_at) / Fold change /veh TMEM136 (11760407_x_at) / RFU CLDN22 /// WWC2 (11732394_at) / Fold change /veh CLDN22 /// WWC2 (11732394_at) / RFU HLA-DPB1 (11760878_x_at) / Fold change /veh HLA-DPB1 (11760878_x_at) / RFU SPINT1 (11716480_a_at) / Fold change /veh SPINT1 (11716480_a_at) / RFU GAP43 (11754022_s_at) / Fold change /veh GAP43 (11754022_s_at) / RFU A4GNT (11735810_at) / Fold change /veh A4GNT (11735810_at) / RFU PRB3 (11715151_x_at) / Fold change /veh PRB3 (11715151_x_at) / RFU TUBB4B (11761932_at) / Fold change /veh TUBB4B (11761932_at) / RFU CAPN14 (11732068_a_at) / Fold change /veh CAPN14 (11732068_a_at) / RFU TMCC2 (11721928_a_at) / Fold change /veh TMCC2 (11721928_a_at) / RFU IRGQ (11745062_a_at) / Fold change /veh IRGQ (11745062_a_at) / RFU FAM174B (11720279_a_at) / Fold change /veh FAM174B (11720279_a_at) / RFU TMPRSS4 (11748680_a_at) / Fold change /veh TMPRSS4 (11748680_a_at) / RFU FAM212B (11763350_a_at) / Fold change /veh FAM212B (11763350_a_at) / RFU PLEKHG5 (11743358_a_at) / Fold change /veh PLEKHG5 (11743358_a_at) / RFU ZSCAN30 (11745921_a_at) / Fold change /veh ZSCAN30 (11745921_a_at) / RFU CMKLR1 (11741424_a_at) / Fold change /veh CMKLR1 (11741424_a_at) / RFU LOC101060620 /// MAPK8IP1 (11723275_at) / Fold change /veh LOC101060620 /// MAPK8IP1 (11723275_at) / RFU SPTSSB (11747773_x_at) / Fold change /veh SPTSSB (11747773_x_at) / RFU PRSS12 (11739890_at) / Fold change /veh PRSS12 (11739890_at) / RFU BIN1 (11741810_x_at) / Fold change /veh BIN1 (11741810_x_at) / RFU WNT11 (11732464_a_at) / Fold change /veh WNT11 (11732464_a_at) / RFU C10orf10 (11716521_a_at) / Fold change /veh C10orf10 (11716521_a_at) / RFU C5orf56 (11738089_at) / Fold change /veh C5orf56 (11738089_at) / RFU CYB561 (11721691_x_at) / Fold change /veh CYB561 (11721691_x_at) / RFU ANKRD19P (11752326_a_at) / Fold change /veh ANKRD19P (11752326_a_at) / RFU OR2T12 /// OR2T33 /// OR2T8 (11738714_s_at) / Fold change /veh OR2T12 /// OR2T33 /// OR2T8 (11738714_s_at) / RFU VCAN (11748164_a_at) / Fold change /veh VCAN (11748164_a_at) / RFU JSRP1 (11732532_at) / Fold change /veh JSRP1 (11732532_at) / RFU KRTAP10-11 (11738290_x_at) / Fold change /veh KRTAP10-11 (11738290_x_at) / RFU MYO3A (11730013_a_at) / Fold change /veh MYO3A (11730013_a_at) / RFU EBF3 (11725865_a_at) / Fold change /veh EBF3 (11725865_a_at) / RFU CAMK2N1 (11719241_x_at) / Fold change /veh CAMK2N1 (11719241_x_at) / RFU C5orf56 (11738088_a_at) / Fold change /veh C5orf56 (11738088_a_at) / RFU OLFML3 (11715873_a_at) / Fold change /veh OLFML3 (11715873_a_at) / RFU LOC100653217 /// NTM (11731650_a_at) / Fold change /veh LOC100653217 /// NTM (11731650_a_at) / RFU MAPK11 (11762145_a_at) / Fold change /veh MAPK11 (11762145_a_at) / RFU FIZ1 (11724087_x_at) / Fold change /veh FIZ1 (11724087_x_at) / RFU OASL (11726364_x_at) / Fold change /veh OASL (11726364_x_at) / RFU SOX15 (11748057_x_at) / Fold change /veh SOX15 (11748057_x_at) / RFU CD79A (11719716_a_at) / Fold change /veh CD79A (11719716_a_at) / RFU HIST1H1D (11736915_at) / Fold change /veh HIST1H1D (11736915_at) / RFU CASKIN2 (11723855_a_at) / Fold change /veh CASKIN2 (11723855_a_at) / RFU LOC730098 (11760151_x_at) / Fold change /veh LOC730098 (11760151_x_at) / RFU OR4N2 (11742367_at) / Fold change /veh OR4N2 (11742367_at) / RFU PRRT2 (11749266_a_at) / Fold change /veh PRRT2 (11749266_a_at) / RFU SNX32 (11753110_a_at) / Fold change /veh SNX32 (11753110_a_at) / RFU CDHR5 (11726645_a_at) / Fold change /veh CDHR5 (11726645_a_at) / RFU RCAN1 (11760418_a_at) / Fold change /veh RCAN1 (11760418_a_at) / RFU FAM167A (11723789_a_at) / Fold change /veh FAM167A (11723789_a_at) / RFU FAM26E (11764081_at) / Fold change /veh FAM26E (11764081_at) / RFU ISYNA1 (11749810_s_at) / Fold change /veh ISYNA1 (11749810_s_at) / RFU ACY1 (11761880_at) / Fold change /veh ACY1 (11761880_at) / RFU 11764098_at / Fold change /veh 11764098_at / RFU SAMD14 (11745864_x_at) / Fold change /veh SAMD14 (11745864_x_at) / RFU NPB (11741838_a_at) / Fold change /veh NPB (11741838_a_at) / RFU TMPRSS6 (11731388_a_at) / Fold change /veh TMPRSS6 (11731388_a_at) / RFU KRTAP10-2 (11738614_at) / Fold change /veh KRTAP10-2 (11738614_at) / RFU ARHGAP8 /// PRR5-ARHGAP8 (11727945_x_at) / Fold change /veh ARHGAP8 /// PRR5-ARHGAP8 (11727945_x_at) / RFU KRTAP5-7 /// NADSYN1 (11734609_at) / Fold change /veh KRTAP5-7 /// NADSYN1 (11734609_at) / RFU RASL12 (11751679_a_at) / Fold change /veh RASL12 (11751679_a_at) / RFU CDKN2B (11736163_a_at) / Fold change /veh CDKN2B (11736163_a_at) / RFU PRF1 (11729649_at) / Fold change /veh PRF1 (11729649_at) / RFU, ZNF638 /// ZNF638-IT1 / Fold change vs veh, ZNF638 /// ZNF638-IT1 / RFU, PANK3 / Fold change vs veh, PANK3 / RFU, SH3YL1 / Fold change vs veh, SH3YL1 / RFU, ZEB2 / Fold change vs veh, ZEB2 / RFU, NRIP1 / Fold change vs veh, NRIP1 / RFU, PTTG1IP / Fold change vs veh, PTTG1IP / RFU, CAPN2 / Fold change vs veh, CAPN2 / RFU, MED14 / Fold change vs veh, MED14 / RFU, SNORA58 / Fold change vs veh, SNORA58 / RFU, C1orf63 / Fold change vs veh, C1orf63 / RFU, LRRFIP1 / Fold change vs veh, LRRFIP1 / RFU, NDUFAF7 / Fold change vs veh, NDUFAF7 / RFU, SLC12A2 / Fold change vs veh, SLC12A2 / RFU, IBTK / Fold change vs veh, IBTK / RFU, ESF1 / Fold change vs veh, ESF1 / Fold change vs veh, TMEM50B / RFU, TAOK1 / Fold change vs veh, TAOK1 / RFU, ACBD3 / Fold change vs veh, ACBD3 / RFU, TMA16 / Fold change vs veh, TMA16 / RFU, RWDD3 / Fold change vs veh, RWDD3 / RFU, BCAT1 / Fold change vs veh, BCAT1 / RFU, EDEM3 / Fold change vs veh, EDEM3 / RFU, TMEM33 / Fold change vs veh, TMEM33 / RFU, WDR75 / Fold change vs veh, WDR75 / RFU, AHCTF1 / Fold change vs veh, AHCTF1 / RFU, TFRC / Fold change vs veh, TFRC / RFU, ZDHHC17 / Fold change vs veh, ZDHHC17 / RFU, NOM1 / Fold change vs veh, NOM1 / RFU, ARL8B / Fold change vs veh, ARL8B / RFU, ZBTB11 / Fold change vs veh, ZBTB11 / RFU, TAMM41 / Fold change vs veh, TAMM41 / RFU, KIAA1704 /// LOC100996395 / Fold change vs veh, KIAA1704 /// LOC100996395 / RFU, ING1 / Fold change vs veh, ING1 / RFU, TRMT61B / Fold change vs veh, TRMT61B / RFU, FUBP3 / Fold change vs veh, FUBP3 / RFU, TP53 / Fold change vs veh, TP53 / RFU, TNKS2 / Fold change vs veh, TNKS2 / RFU, ZFP14 / Fold change vs veh, ZFP14 / RFU, ACTR2 / Fold change vs veh, ACTR2 / RFU, PPP3R1 / Fold change vs veh, PPP3R1 / RFU, PIK3R1 / Fold change vs veh, PIK3R1 / RFU, HNRNPA1 / Fold change vs veh, HNRNPA1 / RFU, RNF170 / Fold change vs veh, RNF170 / RFU, ZNF28 / Fold change vs veh, ZNF28 / RFU, RNGTT / Fold change vs veh, RNGTT / RFU, OGT / Fold change vs veh, OGT / RFU, BRD1 / Fold change vs veh, BRD1 / RFU, MARS / Fold change vs veh, MARS / RFU, ZNF655 / Fold change vs veh, ZNF655 / RFU, FAHD1 / Fold change vs veh, FAHD1 / RFU, BDP1 / Fold change vs veh, BDP1 / RFU, LRRCC1 / Fold change vs veh, LRRCC1 / RFU, ARID1A / Fold change vs veh, ARID1A / RFU, ZNF146 / Fold change vs veh, ZNF146 / RFU, ZNF330 / Fold change vs veh, ZNF330 / RFU, GPN3 / Fold change vs veh, GPN3 / RFU, C9orf123 / Fold change vs veh, C9orf123 / RFU, N4BP2L2 / Fold change vs veh, N4BP2L2 / RFU, ARFIP1 / Fold change vs veh, ARFIP1 / RFU, FAM179B / Fold change vs veh, FAM179B / RFU, BCL10 / Fold change vs veh, BCL10 / RFU, UHRF1BP1L / Fold change vs veh, UHRF1BP1L / RFU, BET1 / Fold change vs veh, BET1 / RFU, CNOT2 / Fold change vs veh, CNOT2 / RFU, ZNF268 / Fold change vs veh, ZNF268 / Fold change vs veh, ZNF507 / RFU, DGCR2 / Fold change vs veh, DGCR2 / RFU, WDSUB1 / Fold change vs veh, WDSUB1 / Fold change vs veh, HSP90B1 /// MIR3652 / RFU, ADSS / Fold change vs veh, ADSS / RFU, GK / Fold change vs veh, GK / RFU, ZNF148 / Fold change vs veh, ZNF148 / RFU, TAF9 / Fold change vs veh, TAF9 / RFU, SLC1A5 / Fold change vs veh, SLC1A5 / RFU, SLMO2 / Fold change vs veh, SLMO2 / RFU, ABCC4 / Fold change vs veh, ABCC4 / RFU, LOC101060439 /// RAP1B / Fold change vs veh, LOC101060439 /// RAP1B / RFU, RFX7 / Fold change vs veh, RFX7 / RFU, GTPBP10 / Fold change vs veh, GTPBP10 / RFU, CNEP1R1 / Fold change vs veh, CNEP1R1 / RFU, BIVM-ERCC5 /// ERCC5 / Fold change vs veh, BIVM-ERCC5 /// ERCC5 / RFU, ILF3 / Fold change vs veh, ILF3 / RFU 11762660_at / Fold change /veh 11762660_at / RFU VCAN (11757783_s_at) / Fold change /veh VCAN (11757783_s_at) / RFU DDX43 (11728927_at) / Fold change /veh DDX43 (11728927_at) / RFU KRT8 (11758188_x_at) / Fold change /veh KRT8 (11758188_x_at) / RFU NKD1 (11759106_at) / Fold change /veh NKD1 (11759106_at) / RFU SRD5A1 (11742802_a_at) / Fold change /veh SRD5A1 (11742802_a_at) / RFU TPSAB1 /// TPSB2 (11721975_s_at) / Fold change /veh TPSAB1 /// TPSB2 (11721975_s_at) / RFU GSTM3 (11746129_a_at) / Fold change /veh GSTM3 (11746129_a_at) / RFU IL23R (11737362_x_at) / Fold change /veh IL23R (11737362_x_at) / RFU TMEM51 (11727254_a_at) / Fold change /veh TMEM51 (11727254_a_at) / RFU PIWIL2 (11732686_x_at) / Fold change /veh PIWIL2 (11732686_x_at) / RFU ORM1 (11744905_x_at) / Fold change /veh ORM1 (11744905_x_at) / RFU CCDC152 (11743942_at) / Fold change /veh CCDC152 (11743942_at) / RFU ECM1 (11717891_a_at) / Fold change /veh ECM1 (11717891_a_at) / RFU IL23R (11748794_a_at) / Fold change /veh IL23R (11748794_a_at) / RFU TNFAIP8L3 (11732012_x_at) / Fold change /veh TNFAIP8L3 (11732012_x_at) / RFU MBOAT4 (11741988_at) / Fold change /veh MBOAT4 (11741988_at) / RFU 11764193_at / Fold change /veh 11764193_at / RFU TMEM53 (11763286_at) / Fold change /veh TMEM53 (11763286_at) / RFU MAGEB2 (11727129_at) / Fold change /veh MAGEB2 (11727129_at) / RFU TMEM200A (11744735_a_at) / Fold change /veh TMEM200A (11744735_a_at) / RFU CCDC152 (11751479_a_at) / Fold change /veh CCDC152 (11751479_a_at) / RFU FAM211A (11726209_a_at) / Fold change /veh FAM211A (11726209_a_at) / RFU RGS16 (11746705_a_at) / Fold change /veh RGS16 (11746705_a_at) / RFU VCAN (11755009_s_at) / Fold change /veh VCAN (11755009_s_at) / RFU RHOB (11743442_s_at) / Fold change /veh RHOB (11743442_s_at) / RFU RGS16 (11720943_a_at) / Fold change /veh RGS16 (11720943_a_at) / RFU RGS16 (11720944_at) / Fold change /veh RGS16 (11720944_at) / RFU, VPS4B / Fold change vs veh, VPS4B / RFU, CREB1 / Fold change vs veh, CREB1 / RFU, DNAJC13 / Fold change vs veh, DNAJC13 / RFU, GNAQ / Fold change vs veh, GNAQ / RFU, CDK5R1 / Fold change vs veh, CDK5R1 / RFU, ZRANB3 / Fold change vs veh, ZRANB3 / RFU, CUL4A / Fold change vs veh, CUL4A / RFU, CCNY / Fold change vs veh, CCNY / RFU, UFL1 / Fold change vs veh, UFL1 / RFU, COG3 / Fold change vs veh, COG3 / RFU, DIAPH2 / Fold change vs veh, DIAPH2 / RFU, SKA2 / Fold change vs veh, SKA2 / RFU, AFF3 / Fold change vs veh, AFF3 / RFU, LMF1 / Fold change vs veh, LMF1 / RFU, IPO11 / Fold change vs veh, IPO11 / RFU, DFFB / Fold change vs veh, DFFB / RFU, FOXP1 / Fold change vs veh, FOXP1 / RFU, CARD8 / Fold change vs veh, CARD8 / RFU, STRN3 / Fold change vs veh, STRN3 / RFU, ADK / Fold change vs veh, ADK / RFU, RASSF2 / Fold change vs veh, RASSF2 / RFU, WIPF1 / Fold change vs veh, WIPF1 / RFU, LARP1B / Fold change vs veh, LARP1B / RFU, RASA1 / Fold change vs veh, RASA1 / RFU, RB1 / Fold change vs veh, RB1 / RFU, PPFIA1 / Fold change vs veh, PPFIA1 / RFU, MAT2A / Fold change vs veh, MAT2A / RFU, CCT5 / Fold change vs veh, CCT5 / RFU, WDR92 / Fold change vs veh, WDR92 / RFU, CUX1 / Fold change vs veh, CUX1 / RFU, TTC7A / Fold change vs veh, TTC7A / RFU, TMEM135 / Fold change vs veh, TMEM135 / RFU, DEPTOR / Fold change vs veh, DEPTOR / RFU, CPM / Fold change vs veh, CPM / RFU, DNAJB6 / Fold change vs veh, DNAJB6 / RFU, CACNA2D3 / Fold change vs veh, CACNA2D3 / RFU, DTX4 / Fold change vs veh, DTX4 / RFU, TFCP2 / Fold change vs veh, TFCP2 / RFU, GMCL1 /// GMCL1P1 / Fold change vs veh, GMCL1 /// GMCL1P1 / RFU, AEBP2 / Fold change vs veh, AEBP2 / RFU, SNHG1 /// SNORD22 /// SNORD25 /// SNORD26 /// SNORD27 /// SNORD28 /// SNORD29 /// SNORD31 / Fold change vs veh, SNHG1 /// SNORD22 /// SNORD25 /// SNORD26 /// SNORD27 /// SNORD28 /// SNORD29 /// SNORD31 / Fold change (Aza/veh), C12orf56 (ProbeSet 11735607_a_at) / Fold change (ACY-1035/veh), C12orf56 (ProbeSet 11735607_a_at) / Fold change (Aza/veh), FGFR1OP (ProbeSet 11751329_s_at) / Fold change (ACY-1035/veh), FGFR1OP (ProbeSet 11751329_s_at) / Fold change (Aza/veh), VPS36 (ProbeSet 11739960_a_at) / Fold change (ACY-1035/veh), VPS36 (ProbeSet 11739960_a_at) / RFU SYPL1 (11715823_x_at) / Fold change /veh SYPL1 (11715823_x_at) / RFU IGFBP7 (11715501_s_at) / Fold change /veh IGFBP7 (11715501_s_at) / RFU REEP3 (11722064_at) / Fold change /veh REEP3 (11722064_at) / RFU IGLL1 (11728026_x_at) / Fold change /veh IGLL1 (11728026_x_at): dose or concentration left out as unconfirmed",
  "details": "ProbeSet 11757268_x_at; LIST B",
  "data": [
    {"smiles": "Nc1ncn([C@@H]2O[C@H](CO)[C@@H](O)[C@H]2O)c(=O)n1", "note": "[azacitidine]", "values": [
      {"measurement": "RFU, HNRNPA1", "result": 4469.53, "unit": "RFU"}
    ]}
  ]
}
